Laboratory results published in patent US11345681B1, “Inhibitors of fibroblast growth factor receptor kinases” (Kinnate Biopharma Inc., priority 2020, dated 2022).

Target: Wild type FGFR2 (Homo sapiens (Human), UniProt P21802)
Test: FGFR2 kinase assay (fluorescence-based microfluidic mobility shift assay)
Assay type: biochemical
Settings: wild type FGFR2 0.06 nM, 100 μM ATP, 80 minutes at room temperature; class symbols

Sequence of Wild type FGFR2 (P21802 22-821): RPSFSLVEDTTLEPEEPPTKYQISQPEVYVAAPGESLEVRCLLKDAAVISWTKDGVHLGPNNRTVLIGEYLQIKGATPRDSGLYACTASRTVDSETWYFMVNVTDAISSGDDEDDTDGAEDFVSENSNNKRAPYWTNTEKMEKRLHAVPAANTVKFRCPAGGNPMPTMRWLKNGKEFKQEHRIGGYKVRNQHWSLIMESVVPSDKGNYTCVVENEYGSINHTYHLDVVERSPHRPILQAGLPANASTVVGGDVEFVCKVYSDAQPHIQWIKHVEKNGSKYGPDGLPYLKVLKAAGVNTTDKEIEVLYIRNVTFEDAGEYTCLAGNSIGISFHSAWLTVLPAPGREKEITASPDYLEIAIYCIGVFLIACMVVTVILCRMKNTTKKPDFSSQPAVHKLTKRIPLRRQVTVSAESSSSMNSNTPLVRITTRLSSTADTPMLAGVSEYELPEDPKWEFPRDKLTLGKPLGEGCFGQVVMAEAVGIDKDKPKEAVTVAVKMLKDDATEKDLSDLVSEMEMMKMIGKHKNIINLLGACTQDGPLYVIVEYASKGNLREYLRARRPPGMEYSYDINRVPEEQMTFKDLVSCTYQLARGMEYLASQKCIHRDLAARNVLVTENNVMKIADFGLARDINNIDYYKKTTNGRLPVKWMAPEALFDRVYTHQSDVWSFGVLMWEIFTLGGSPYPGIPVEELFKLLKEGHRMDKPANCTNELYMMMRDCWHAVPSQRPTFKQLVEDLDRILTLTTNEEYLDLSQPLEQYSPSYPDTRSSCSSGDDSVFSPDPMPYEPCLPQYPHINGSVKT

IC50 [µM]	SMILES
≤ 0.1	C=CC(=O)N1C[C@@H](n2nc(C#Cc3cc4nc5n(c4cc3Cl)CCC5)c(C(N)=O)c2NC)C[C@@H]1COC [Example 285, 1-((3S,5R)-1-Acryloyl-5-(methoxymethyl)pyrrolidin-3-yl)-3-((7-chloro-2,3-dihydro-1H-benzo[d]pyrrolo[1,2-a]imidazol-6-yl)ethynyl)-5-(methylamino)-1H-pyrazole-4-carboxamide]
≤ 0.1	C=CC(=O)N1C[C@@H](n2nc(C#Cc3c(F)ccc4c3cnn4C3CC3)c(C(N)=O)c2NC)C[C@@H]1COC [Example 287, 1-((3S,5R)-1-Acryloyl-5-(methoxymethyl)pyrrolidin-3-yl)-3-((1-cyclopropyl-5-fluoro-1H-indazol-4-yl)ethynyl)-5-(methylamino)-1H-pyrazole-4-carboxamide]

SMILES	IC50 [µM]
C=CC(=O)N1C[C@@H](n2nc(C#Cc3cc4ncc(Cl)n4cc3F)c(C(N)=O)c2NC)C[C@@H]1COC [Example 290, 3-(2-{3-Chloro-6-fluoroimidazo[1,2-a]pyridin-7-yl}ethynyl)-1-[(3S,5R)-5-(methoxymethyl)-1-(prop-2-enoyl)pyrrolidin-3-yl]-5-(methylamino)pyrazole-4-carboxamide]	≤ 0.1
